# What was measured:
# Format in all cases: cell-based
# Ps. aeruginosa [1] = assay: MIC, in vitro agar dilution assay, aerobic bacteria (Table II); settings: Ps. aeruginosa, first unmarked strain; 10^6 CFU per spot
# [2] = tested on: Clostridium perfringens NCCLS control strain; assay: microbe, parasite or virus in culture; settings: Clostridium perfringens NCCLS control strain; 10^6 CFU per spot
# Veillonella alcalescens = assay: MIC, in vitro agar dilution assay, anaerobic bacteria (Table III); settings: 10^6 CFU per spot
# [3] = tested on: Klebsiella pneumoniae MB 4005; assay: MIC listed with mouse protection test (Table IV)
# Vibrio percolans MB 1272 = assay: in vitro agar disc diffusion bioassay of column fractions (Table V)
# Protocol: A 0.4 ml sample of 2.1 L spent ethyl acetate fraction from Step A above was evaporated to an oily residue and taken up in 0.7 ml of 7:3 methanol-0.01Mpotassium phosphate pH 7.0. A 0.4 ml aliquot of the solution was chromatographed in the same solvent at 28° C. on a Dupont Zorbax ODS column (4.6 mn ID×25 cm), 10 micron. The flow rate was 1 ml/min. and column effluent was monitored at 275 nm using a Laboratory Data Control Spectra Monitor I ultraviolet detector equipped with a 10 mm pathlength flow cell and a Honeywell Electronik 195 recorder. Eluate was collected in 0.5 ml fractions and assayed by agar disc diffusion against Vibrio percolans MB 1272. Table V summaries bioassay results.
# The data in Table V show the presence of two distinct antibacterial substances in spent ethyl acetate. The activity in Fractions 11 and 12 is due to the antibacterial oxydifficidin. The activity in Fractions 61-65 is due to the antibacterial difficidin.
# [4] = tested on: Fusobacterium mortiferum Fox^r; assay: MIC, in vitro agar dilution assay, anaerobic bacteria (Table III); settings: 10^6 CFU per spot
# Prot. morganii Sm^R = assay: MIC, in vitro agar dilution assay, aerobic bacteria (Table II); settings: Prot. morganii Sm^R; 10^6 CFU per spot
# E. coli TEM 2^+ = assay: as above; settings: E. coli TEM 2^+; 10^6 CFU per spot
# [5] = tested on: B. fragilis Clind^r Fox^r Tet^r; assay: MIC, in vitro agar dilution assay, anaerobic bacteria (Table III); settings: 10^6 CFU per spot
# Ser. marcescens = assay: MIC, in vitro agar dilution assay, aerobic bacteria (Table II); settings: 10^6 CFU per spot
# Ent. cloacae P99^- = assay: as above; settings: Ent. cloacae P99^-; 10^6 CFU per spot
# Propionibacterium acnes = assay: MIC, in vitro agar dilution assay, anaerobic bacteria (Table III); settings: 10^6 CFU per spot
# Ps. aeruginosa RPL 11^+ = assay: MIC, in vitro agar dilution assay, aerobic bacteria (Table II); settings: Ps. aeruginosa RPL 11^+; 10^6 CFU per spot
# Prot. mirabilis Gm^R = assay: as above; settings: 10^6 CFU per spot
# K. pneumoniae Kl^+ = assay: as above; settings: 10^6 CFU per spot
# S. aureus Gm^R Meth^R = assay: as above; settings: S. aureus Gm^R Meth^R; 10^6 CFU per spot
# Strep. faecalis = assay: as above; settings: 10^6 CFU per spot
# Description: (§1) Further evaluations of the antibacterial spectrum of difficidin and oxydifficidin were undertaken, especially as compared to the antibacterial spectrum of the valuable antibiotic cefoxitin, which is well known for its wide spectrum of antibacterial activity. An in vitro agar dilution assay was used, inoculum 10^6 CFU per spot. Table II below illustrates the results obtained for various aerobic bacteria, and Table III illustrates the results obtained for various anaerobic bacteria.
# S. aureus = assay: as above; settings: 10^6 CFU per spot
# Description: as §1
# E. coli = assay: as above; settings: 10^6 CFU per spot
# Description: as §1
# B. ovatus Pen^r = assay: MIC, in vitro agar dilution assay, anaerobic bacteria (Table III); settings: 10^6 CFU per spot
# [6] = tested on: B. thetaiotaomicron Clind^r; assay: as above; settings: 10^6 CFU per spot
# Prot. vulgaris = assay: MIC, in vitro agar dilution assay, aerobic bacteria (Table II); settings: 10^6 CFU per spot
# Eubacterium limosum = assay: MIC, in vitro agar dilution assay, anaerobic bacteria (Table III); settings: 10^6 CFU per spot
# Sal. typhimurium = assay: MIC, in vitro agar dilution assay, aerobic bacteria (Table II); settings: 10^6 CFU per spot
# [7] = tested on: B. thetaiotaomicron Clind^r, NCCLS control strain; assay: MIC, in vitro agar dilution assay, anaerobic bacteria (Table III); settings: 10^6 CFU per spot
# C. ramosum = assay: as above; settings: 10^6 CFU per spot
# Streptococcus faecalis = assay: MIC, standard in vitro assay (Table I); settings: 10^6 CFU; 1 strain tested
# Description: (§2) Using standard in vitro assay techniques, minimal inhibitory concentrations (MIC) have been determined for difficidin and oxydifficidin against a number of bacteria.
# Salmonella typhimurium = assay: MIC, standard in vitro assay (Table I); settings: for MIC Range: 10^6 CFU, 1 strain tested
# Description: as §2
# Proteus = assay: MIC, standard in vitro assay (Table I); settings: for MIC Range: 10^6 CFU, 3 strains tested
# Description: as §2
# Enterobacter = assay: MIC, standard in vitro assay (Table I); settings: 10^6 CFU; 3 strains tested
# Description: as §2
# Staphylococcus aureus = assay: MIC, standard in vitro assay (Table I); settings: for MIC Range: 10^6 CFU, 3 strains tested
# Description: as §2
# [8] = tested on: B. fragilis NCCLS control strain; assay: MIC, in vitro agar dilution assay, anaerobic bacteria (Table III); settings: 10^6 CFU per spot
# anaerobic bacteria = assay: antibacterial activity against anaerobic bacteria, summary; settings: wide spectrum of anaerobic bacteria
# Ent. aerogenes = assay: MIC, in vitro agar dilution assay, aerobic bacteria (Table II); settings: Ent. aerogenes; 10^6 CFU per spot
# [9] = tested on: C. difficile Clind^r, Fox^r; assay: MIC, in vitro agar dilution assay, anaerobic bacteria (Table III); settings: 10^6 CFU per spot
# Ps. aeruginosa [10] = assay: MIC, in vitro agar dilution assay, aerobic bacteria (Table II); settings: Ps. aeruginosa, second unmarked strain; 10^6 CFU per spot
# Ent. cloacae P99^+ = assay: as above; settings: Ent. cloacae P99^+; 10^6 CFU per spot
# [11] = tested on: Bacteriodes fragilis Metr^r, Pen^r; assay: MIC, in vitro agar dilution assay, anaerobic bacteria (Table III); settings: 10^6 CFU per spot
compound,measurement,setting,value
"C=CC=C(C)CCC1CC=CC=C(C)C(OP(=O)(O)O)CCCC=CC=CC=CCC(C)C(=C)CC(=O)O1 (centres unmarked) [Difficidin, difficidin]",MIC,Ps. aeruginosa [1],8.0 µg/mL
same,MIC,[2],> 128 µg/mL
same,MIC,Veillonella alcalescens,0.25 µg/mL
same,MIC,[3],8 µg/mL
same,Zone Diameter,"Vibrio percolans MB 1272; Fraction 61, 40 μl on 3/8"" disc",12 mm
same,Zone Diameter,"Vibrio percolans MB 1272; Fraction 62, 40 μl on 3/8"" disc",12 mm
same,Zone Diameter,"Vibrio percolans MB 1272; Fraction 63, 40 μl on 3/8"" disc",12 mm
same,Zone Diameter,"Vibrio percolans MB 1272; Fraction 64, 40 μl on 3/8"" disc",12 mm
same,Zone Diameter,"Vibrio percolans MB 1272; Fraction 65, 40 μl on 3/8"" disc",12 mm
same,MIC,[4],0.03 µg/mL
same,MIC,Prot. morganii Sm^R,2.0 µg/mL
same,MIC,E. coli TEM 2^+,8.0 µg/mL
same,MIC,[5],0.25 µg/mL
same,MIC,Ser. marcescens,4.0 µg/mL
same,MIC,Ent. cloacae P99^-,8.0 µg/mL
same,MIC,Propionibacterium acnes,1 µg/mL
same,MIC,Ps. aeruginosa RPL 11^+,8.0 µg/mL
same,MIC,Prot. mirabilis Gm^R,8.0 µg/mL
same,MIC,K. pneumoniae Kl^+,8.0 µg/mL
same,MIC,S. aureus Gm^R Meth^R,8.0 µg/mL
same,MIC,Strep. faecalis,> 128.0 µg/mL
same,MIC,S. aureus; first unmarked strain,16.0 µg/mL
same,MIC,S. aureus; second unmarked strain,8.0 µg/mL
same,MIC,E. coli,8.0 µg/mL
same,MIC,B. ovatus Pen^r,0.125 µg/mL
same,MIC,[6],0.25 µg/mL
same,MIC,Prot. vulgaris,0.5 µg/mL
same,MIC,Eubacterium limosum,> 128 µg/mL
same,MIC,Sal. typhimurium,8.0 µg/mL
same,MIC,[7],0.06 µg/mL
same,MIC,C. ramosum,2 µg/mL
same,MIC Range,Streptococcus faecalis,128 µg/mL
same,MIC Range,Salmonella typhimurium,8 µg/mL
same,effectiveness of difficidin relative to oxydifficidin,"Salmonella typhimurium; Salmonella typhimurium, in most cases",four times more effective
same,MIC Range,Proteus,0.5 to 8 µg/mL
same,effectiveness of difficidin relative to oxydifficidin,"Proteus; Proteus, in most cases",four times more effective
same,MIC Range,Enterobacter,8 to 16 µg/mL
same,MIC Range,Staphylococcus aureus,8 to 16 µg/mL
same,effectiveness of difficidin relative to oxydifficidin,"Staphylococcus aureus; S. aureus, in most cases",four times more effective
same,MIC,[8],0.06 µg/mL
same,activity against anaerobic bacteria,anaerobic bacteria,active against a wide spectrum of anaerobic bacteria
same,MIC,Ent. aerogenes,8.0 µg/mL
same,MIC,[9],0.125 µg/mL
same,MIC,Ps. aeruginosa [10],8.0 µg/mL
same,MIC,Ent. cloacae P99^+,16.0 µg/mL
same,MIC,[11],0.125 µg/mL
"C=CC=C(C)CCC1CC=CC=C(C)C(OP(=O)(O)O)CCCC=CC=CC=CC(O)C(C)C(=C)CC(=O)O1 (centres unmarked) [Oxydifficidin, oxydifficidin]",MIC,Ps. aeruginosa [1],32.0 µg/mL
same,MIC,[2],> 128 µg/mL
same,MIC,Veillonella alcalescens,0.06 µg/mL
same,MIC,[3],8 µg/mL
same,Zone Diameter,"Vibrio percolans MB 1272; Fraction 11, 40 μl on 3/8"" disc",23 mm
same,Zone Diameter,"Vibrio percolans MB 1272; Fraction 12, 40 μl on 3/8"" disc",19 mm
same,MIC,[4],0.125 µg/mL
same,MIC,Prot. morganii Sm^R,2.0 µg/mL
same,MIC,E. coli TEM 2^+,16.0 µg/mL
same,MIC,[5],0.25 µg/mL
same,MIC,Ser. marcescens,16.0 µg/mL
same,MIC,Ent. cloacae P99^-,64.0 µg/mL
same,MIC,Propionibacterium acnes,8 µg/mL
same,MIC,Ps. aeruginosa RPL 11^+,16.0 µg/mL
same,MIC,Prot. mirabilis Gm^R,32.0 µg/mL
same,MIC,K. pneumoniae Kl^+,8.0 µg/mL
same,MIC,S. aureus Gm^R Meth^R,32.0 µg/mL
same,MIC,Strep. faecalis,> 128.0 µg/mL
same,MIC,S. aureus; first unmarked strain,> 128.0 µg/mL
same,MIC,S. aureus; second unmarked strain,32.0 µg/mL
same,MIC,E. coli,4.0 µg/mL
same,MIC,B. ovatus Pen^r,0.25 µg/mL
same,MIC,[6],0.25 µg/mL
same,MIC,Prot. vulgaris,8.0 µg/mL
same,MIC,Eubacterium limosum,> 128 µg/mL
same,MIC,Sal. typhimurium,32.0 µg/mL
same,MIC,[7],0.25 µg/mL
same,MIC,C. ramosum,2 µg/mL
same,MIC Range,Streptococcus faecalis,128 µg/mL
same,MIC Range,Salmonella typhimurium,32 µg/mL
same,MIC Range,Proteus,2 to 32 µg/mL
same,MIC Range,Enterobacter,32 to 64 µg/mL
same,MIC Range,Staphylococcus aureus,32 to 128 µg/mL
same,MIC,[8],0.25 µg/mL
same,activity against anaerobic bacteria,anaerobic bacteria,active against a wide spectrum of anaerobic bacteria
same,MIC,Ent. aerogenes,32.0 µg/mL
same,MIC,[9],0.06 µg/mL
same,MIC,Ps. aeruginosa [10],32.0 µg/mL
same,MIC,Ent. cloacae P99^+,32.0 µg/mL
same,MIC,[11],0.25 µg/mL

# — US4545991A, “Difficidin and derivative antibacterials” (Merck & Co., Inc., priority 1983, dated 1985)
